Assay [1] has as its system Prostate cancer C42 cells. Put plainly: Apoptosis assays: caspase-3 activity and time lapse video recording. The note with it: for concentration at which maximal caspase activation is achieved: comparison of PI3K inhibitors. It counts as cell-based. The method, then: FIG. 6. […] Prostate cancer C42 cells were treated with 10 nM of TGFα-pseudomonas exotoxin chimera (PE) and 500 nM PI3K inhibitor ZSTK474 (ZSTK) or PI3K inhibitor LY294002 (LY) individually and in combination. A) Caspase activity was measured 3 h and 6 h after treatments began; B) Time lapse video-recording of C42 cells treated with 10 nM PE or combination of 10 nM PE and 500 nM ZSTK474. Representative images taken 2, 5, and 14 h after treatments began; C) Caspase activity measured 6 h after cells were treated with increasing concentrations of PE and 25 mcM of LY294002 (LY).
Western blotting—Tumors were excised, homogenized on ice in lysis buffer [10% glycerol, 50 mM PIPES-KOH (pH 7.4), 5 mM EDTA, 1% NP40, 1 mM DTT, protease and phosphatase inhibitors;] centrifuged 10 min 14,000 G to precipitate unsoluble fraction. Soluble fraction was resolved by SDS-PAGE followed by Western blotting on nitrocellulose. Nitrocellulose membranes were probed with antibodies to Akt and phospho-Akt according to manufacturer's instructions; the appropriate secondary antibodies were then applied and positive signals detected by enhanced chemiluminescence. Immunofluorescence—Cells were plated on glass coverslips in 6-well plates and treated and fixed with 10% formalin in PBS (pH 7.4) for 15 min. The cells were then blocked in 2.5% goat serum in PBS-T for 30 min at 37° C. Blocking solution was used to prepare a 1:300 mixture of mouse-J591 anti-PSMA antibodies subsequent procedures were done at room temperature. Incubation with primary antibodies was continued for 3 h. The cells were then washed three times with PBS-T and incubated with a mixture of goat antimouse antibodies conjugated with fluorescein, diluted in blocking solution at a ratio of 1:300 each. One h later, cells were washed with PBS-T, stained with DAPI, and mounted on glass microscope slides. Image analysis was done on a Nikon microscope equipped with a digital camera and software from Inovision (Durham, N.C.). Tumor Implantations—Nude mice (BALB/cAnNCrj-nu from Charles River) received four subcutaneous injections or two intratibial injections of 2×10^6 cells with Matrigel. Injections were made using an insulin syringe and a 27 gauge needle. All manipulations with animals were conducted in humane manner, in strict adherence with a protocol approved by institutional ACUC, which was designed to minimize animal suffering. Luminescence Imaging—Tumor growth was analyzed with a Xenogen IVIS® 100 optical imaging system (Caliper Life Sciences, Hopkinton, Mass.). Animals were immobilized for substrate injection and imaging through an attached gas anesthesia system consisting of 2% isoflurane/O2. To account for background and nonspecific luminescence, mice were imaged before injection of […]. Animals were injected with 100 μl of the firefly luciferase substrate luciferin (3.5 mg/ml in PBS) and imaged 15 minutes later in prone and supine positions (5 minutes each). Whole-body images were obtained using the Living Image® software provided with imaging system. A gray-scale photographic image and the bioluminescent color image are superimposed to provide anatomic registration of the light signal. A region of interest (ROI) was manually selected over the luminescent signal, and the intensity was recorded as photons/second within an ROI. Apoptosis Assays—Apoptosis in whole cell populations was quantified by measuring caspase-3 activity with the fluorogenic substrate Ac-DEVD-7-amido-4-trifluoromethyl-coumarin (Bachem) as specified by the manufacturer. For these experiments, attached and floating cells were collected and lysed in caspase lysis buffer (1% Nonidet P-40, 150 mM NaCl, 20 mM HEPES, 1 mM EDTA, 1 mM dithiothreitol, and 5 μg/ml aprotinin, leupeptin, and pepstatin). Fluorescence was recorded each 15 min for 1 h, and caspase activity was expressed in arbitrary units. […]

Assay [2] deals with subcutaneous xenograft tumors. Description: Luminescence imaging of subcutaneous xenograft tumors injected with LY294002. It counts as in vivo, mice. To be noted: injections into subcutaneous xenograft tumors, versus DMSO. From the text:
(§1) FIG. 4A) Representative luminescent images (superimposed on black and white images) of mice injected with solvent (DMSO) or LY294002. Injection site is indicated by arrow. FIG. 4B) Changes in luminescence of subcutaneous xenograft tumors injected with LY294002 or DMSO (error bars show standard deviations between 3 tumors injected with each agent). FIG. 4C) Tissue sections of xenograft tumors. Arrowheads point at apoptotic cells. FIG. 4D) Inhibition of Akt phosphorylation in xenografts injected with LY294002. Western blotting of tumor lysates.
(§2) Western blotting—Tumors were excised, homogenized on ice in lysis buffer [10% glycerol, 50 mM PIPES-KOH (pH 7.4), 5 mM EDTA, 1% NP40, 1 mM DTT, protease and phosphatase inhibitors;] centrifuged 10 min 14,000 G to precipitate unsoluble fraction. […] Nitrocellulose membranes were probed with antibodies to Akt and phospho-Akt according to manufacturer's instructions; the appropriate secondary antibodies were then applied and positive signals detected by enhanced chemiluminescence. […] Luminescence Imaging—Tumor growth was analyzed with a Xenogen IVIS® 100 optical imaging system (Caliper Life Sciences, Hopkinton, Mass.). […] To account for background and nonspecific luminescence, mice were imaged before injection of luciferase. […] Fluorescence was recorded each 15 min for 1 h, and caspase activity was expressed in arbitrary units. […]

Assay [3] concerns PI3K. Put plainly: Western blotting of tumor lysates for Akt phosphorylation. It counts as in vivo, mice. To be noted: xenografts injected with LY294002.
From the text: as §1, §2

Assay [4] deals with PI3K. To be noted: J. Natl. Can. Inst. 2006, 98, 545-556; cited from earlier work.

Here are results for three compounds from US20120237533A1, “Compositions and Methods for Inducing Apoptosis in Prostate Cancer Cells” (priority 2009, published 2012).

As to `Cn1c(=O)n(-c2ccc(C(C)(C)C#N)cc2)c2c3cc(-c4cnc5ccccc5c4)ccc3ncc21` [BEZ235], the “concentration at which maximal caspase activation is achieved” value (shortened to “concentration”) in assay [1] was 5 µM.
Consider `O=c1cc(N2CCOCC2)oc2c(-c3ccccc3)cccc12` [LY294002], for which the induction of apoptosis result in assay [1] (25 μM LY294002 in combination with 10 nM of TGFαPE40 fusion) was “maximal induction of apoptosis”. Also, the “induction of apoptosis (caspase activity)” value in assay [1] (C42 cells, 25 mcM LY294002 with increasing concentrations of PE, 6 h) is “synergistic induction of apoptosis”. Moreover, the “concentration” value in assay [1] came to 25 µM. The “tumor growth (luminescence of xenograft tumors)” value in assay [2] was “inhibit”. Also, the “PI3K activity (Akt phosphorylation in xenografts)” value in the assay on PI3K [3] is recorded as “inhibit PI3K activity”.
For `FC(F)c1nc2ccccc2n1-c1nc(N2CCOCC2)nc(N2CCOCC2)n1` [ZSTK474], the induction of apoptosis result in assay [1] (0.5 μM of ZSTK474 in combination with 10 nM of TGFαPE40 fusion) is recorded as “maximal induction of apoptosis”. Moreover, the “induction of apoptosis (caspase activity, time lapse video)” value in assay [1] (C42 cells, 500 nM ZSTK474 with 10 nM TGFα-pseudomonas exotoxin chimera (PE), 3 h and 6 h) is “synergistic induction of apoptosis”. In addition, in assay [1], the “concentration” value was 0.5 µM. For the same compound, in the assay on PI3K [4], the “PI3K inhibition relative to LY294002” value was “more efficiently than LY294002”.
